Key:
[1] = test system: relapsed/refractory primary CLL samples; experiment: Annexin V/propidium iodide flow cytometry; assay type: cell-based; conditions: Homo sapiens; 8 BTKi/venetoclax relapsed/refractory samples; 24 h; read-out: IC50 (50% killing)
Neuropeptide Y Y2 = Neuropeptide Y Y2 (Homo sapiens, UniProt P49146); experiment: Eurofins Diversity Panel; assay type: binding; conditions: hum, Conc. 10 μM
Transporter, GABA = Transporter, GABA (Rattus norvegicus, UniProt P23978); experiment: Eurofins Diversity Panel; assay type: binding; conditions: Conc. 10 μM
human kinome [2] = target: human kinome (Homo sapiens, UniProt Q96BR1); experiment: DiscoverX KINOMEscan kinase profiling (468 assays); assay type: binding; conditions: kinase SGK3 (Entrez SGK3); compound concentration 1000 nM; read-out: Percent Control
Method: (§1) Kinomescan Kinase Profiling Assay
(§2) Kinomescan Assay was performed at DiscoverRX and described in Fabian, et al. 2005, Nat.
(§3) Biotechnol. In brief, kinases were produced and subsequently tagged with DNA for qPCR detection.
(§4) Streptavidin-coated magnetic beads were bound to biotinylated kinase ligands to serve as a solid support.
(§5) VIP152 was dissolved in DMSO and tested across a 10 serial threefold dilution set and compared to a test
(§6) compound and a DMSO control.
(§7) Kinome map was produced via TreeSpot
(§8) Analysis from DiscoverRX. […]

human kinome [3] = target: human kinome (Homo sapiens, UniProt P10721, L576P); experiment: DiscoverX KINOMEscan kinase profiling (468 assays); assay type: binding; conditions: KIT(L576P); 100 nM; read-out: Percent Control
Method: as §1, §2, §3, §4, §5, §6, §7, §8

human kinome [4] = target: human kinome (Homo sapiens, UniProt P30530); experiment: DiscoverX KINOMEscan kinase profiling (468 assays); assay type: binding; conditions: AXL; 100 nM; read-out: Percent Control
Method: as §1, §2, §3, §4, §5, §6, §7, §8

human kinome [5] = target: human kinome (Homo sapiens, UniProt P54762); experiment: DiscoverX KINOMEscan kinase profiling (468 assays); assay type: binding; conditions: EPHB1; 100 nM; read-out: Percent Control
Method: as §1, §2, §3, §4, §5, §6, §7, §8

human kinome [6] = target: human kinome (Homo sapiens, UniProt P11309); experiment: DiscoverX KINOMEscan kinase profiling (468 assays); assay type: binding; conditions: read-out: Percent Control
Method: as §1, §2, §3, §4, §5, §6, §7, §8

human kinome [7] = target: human kinome (Homo sapiens, UniProt Q16288); experiment: DiscoverX KINOMEscan kinase profiling (468 assays); assay type: binding; conditions: kinase TRKC (Entrez NTRK3); compound concentration 1000 nM; read-out: Percent Control
Method: as §1, §2, §3, §4, §5, §6, §7, §8

human kinome [8] = target: human kinome (Homo sapiens, UniProt Q6ZN16); experiment: DiscoverX KINOMEscan kinase profiling (468 assays); assay type: binding; conditions: MAP3K15; 100 nM; read-out: Percent Control
Method: as §1, §2, §3, §4, §5, §6, §7, §8

human kinome [9] = target: human kinome (Homo sapiens, UniProt P29320); experiment: DiscoverX KINOMEscan kinase profiling (468 assays); assay type: binding; conditions: EPHA3; 100 nM; read-out: Percent Control
Method: as §1, §2, §3, §4, §5, §6, §7, §8

human kinome [10] = target: human kinome (Homo sapiens, UniProt P53779); experiment: DiscoverX KINOMEscan kinase profiling (468 assays); assay type: binding; conditions: JNK3 (Entrez MAPK10); 100 nM; read-out: Percent Control
Method: as §1, §2, §3, §4, §5, §6, §7, §8

human kinome [11] = target: human kinome (Homo sapiens, UniProt Q16659); experiment: DiscoverX KINOMEscan kinase profiling (468 assays); assay type: binding; conditions: ERK3 (Entrez MAPK6); 100 nM; read-out: Percent Control
Method: as §1, §2, §3, §4, §5, §6, §7, §8

human kinome [12] = target: human kinome (Homo sapiens, UniProt Q8WXR4); experiment: DiscoverX KINOMEscan kinase profiling (468 assays); assay type: binding; conditions: read-out: Percent Control
Method: as §1, §2, §3, §4, §5, §6, §7, §8

human kinome [13] = target: human kinome (Homo sapiens, UniProt Q8IWQ3); experiment: DiscoverX KINOMEscan kinase profiling (468 assays); assay type: binding; conditions: BRSK2; 100 nM; read-out: Percent Control
Method: as §1, §2, §3, §4, §5, §6, §7, §8

human kinome [14] = target: human kinome (Homo sapiens, UniProt P29323); experiment: DiscoverX KINOMEscan kinase profiling (468 assays); assay type: binding; conditions: EPHB2; 100 nM; read-out: Percent Control
Method: as §1, §2, §3, §4, §5, §6, §7, §8

human kinome [15] = target: human kinome (Homo sapiens, UniProt O60285); experiment: DiscoverX KINOMEscan kinase profiling (468 assays); assay type: binding; conditions: ARK5 (Entrez NUAK1); 100 nM; read-out: Percent Control
Method: as §1, §2, §3, §4, §5, §6, §7, §8

human kinome [16] = target: human kinome (Homo sapiens, UniProt Q9Y2U5); experiment: DiscoverX KINOMEscan kinase profiling (468 assays); assay type: binding; conditions: MAP3K2; 100 nM; read-out: Percent Control
Method: as §1, §2, §3, §4, §5, §6, §7, §8

human kinome [17] = target: human kinome (Homo sapiens, UniProt O14733); experiment: DiscoverX KINOMEscan kinase profiling (468 assays); assay type: binding; conditions: MKK7 (Entrez MAP2K7); 100 nM; read-out: Percent Control
Method: as §1, §2, §3, §4, §5, §6, §7, §8

human kinome [18] = target: human kinome (Homo sapiens, UniProt P48736); experiment: DiscoverX KINOMEscan kinase profiling (468 assays); assay type: binding; conditions: read-out: Percent Control
Method: as §1, §2, §3, §4, §5, §6, §7, §8

human kinome [19] = target: human kinome (Homo sapiens, UniProt P42336, E545A); experiment: DiscoverX KINOMEscan kinase profiling (468 assays); assay type: binding; conditions: read-out: Percent Control
Method: as §1, §2, §3, §4, §5, §6, §7, §8

human kinome [20] = target: human kinome (Homo sapiens, UniProt Q9BYP7); experiment: DiscoverX KINOMEscan kinase profiling (468 assays); assay type: binding; conditions: kinase WNK3 (Entrez WNK3); compound concentration 1000 nM; read-out: Percent Control
Method: as §1, §2, §3, §4, §5, §6, §7, §8

human kinome [21] = target: human kinome (Homo sapiens, UniProt P43405); experiment: DiscoverX KINOMEscan kinase profiling (468 assays); assay type: binding; conditions: kinase SYK (Entrez SYK); compound concentration 1000 nM; read-out: Percent Control
Method: as §1, §2, §3, §4, §5, §6, §7, §8

human kinome [22] = target: human kinome (Homo sapiens, UniProt Q13555); experiment: DiscoverX KINOMEscan kinase profiling (468 assays); assay type: binding; conditions: CAMK2G; 100 nM; read-out: Percent Control
Method: as §1, §2, §3, §4, §5, §6, §7, §8

human kinome [23] = target: human kinome (Homo sapiens, UniProt P49761); experiment: DiscoverX KINOMEscan kinase profiling (468 assays); assay type: binding; conditions: CLK3; 100 nM; read-out: Percent Control
Method: as §1, §2, §3, §4, §5, §6, §7, §8

human kinome [24] = target: human kinome (Homo sapiens, UniProt P36894); experiment: DiscoverX KINOMEscan kinase profiling (468 assays); assay type: binding; conditions: BMPR1A; 100 nM; read-out: Percent Control
Method: as §1, §2, §3, §4, §5, §6, §7, §8

human kinome [25] = target: human kinome (Homo sapiens, UniProt Q8TDC3); experiment: DiscoverX KINOMEscan kinase profiling (468 assays); assay type: binding; conditions: BRSK1; 100 nM; read-out: Percent Control
Method: as §1, §2, §3, §4, §5, §6, §7, §8

human kinome [26] = target: human kinome (Homo sapiens, UniProt Q05655); experiment: DiscoverX KINOMEscan kinase profiling (468 assays); assay type: binding; conditions: read-out: Percent Control
Method: as §1, §2, §3, §4, §5, §6, §7, §8

human kinome [27] = target: human kinome (Homo sapiens, UniProt Q9UKI8); experiment: DiscoverX KINOMEscan kinase profiling (468 assays); assay type: binding; conditions: kinase TLK1 (Entrez TLK1); compound concentration 1000 nM; read-out: Percent Control
Method: as §1, §2, §3, §4, §5, §6, §7, §8

human kinome [28] = target: human kinome (Homo sapiens, UniProt Q9UEE5); experiment: DiscoverX KINOMEscan kinase profiling (468 assays); assay type: binding; conditions: DRAK1 (Entrez STK17A); 100 nM; read-out: Percent Control
Method: as §1, §2, §3, §4, §5, §6, §7, §8

MAP3K3 = MAP3K3 (Homo sapiens, UniProt Q99759); experiment: KINOMEscan: MAP3K3; assay type: binding; conditions: 1000 nM, read-out: Percent Control

Chain of human kinome (Homo sapiens, UniProt Q05655) (Q05655 whole entry): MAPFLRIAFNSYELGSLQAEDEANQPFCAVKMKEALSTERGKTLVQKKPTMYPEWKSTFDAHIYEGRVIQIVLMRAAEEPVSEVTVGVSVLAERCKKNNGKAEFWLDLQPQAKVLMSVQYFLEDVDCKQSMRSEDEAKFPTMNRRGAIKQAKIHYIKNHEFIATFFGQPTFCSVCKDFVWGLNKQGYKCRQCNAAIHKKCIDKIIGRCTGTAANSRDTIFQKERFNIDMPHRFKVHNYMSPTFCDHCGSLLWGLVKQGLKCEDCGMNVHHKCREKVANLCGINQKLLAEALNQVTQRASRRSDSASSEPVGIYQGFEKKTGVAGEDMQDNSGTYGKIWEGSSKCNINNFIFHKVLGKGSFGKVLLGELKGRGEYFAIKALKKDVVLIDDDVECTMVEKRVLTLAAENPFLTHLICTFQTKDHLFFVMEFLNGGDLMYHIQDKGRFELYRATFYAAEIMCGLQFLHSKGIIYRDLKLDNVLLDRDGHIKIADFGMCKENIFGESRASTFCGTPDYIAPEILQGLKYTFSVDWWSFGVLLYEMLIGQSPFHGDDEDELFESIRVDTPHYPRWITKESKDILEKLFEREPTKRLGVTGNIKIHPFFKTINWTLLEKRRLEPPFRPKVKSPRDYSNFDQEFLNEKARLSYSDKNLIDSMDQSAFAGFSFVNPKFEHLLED
Chain of human kinome (Homo sapiens, UniProt Q8WXR4) (Q8WXR4 whole entry): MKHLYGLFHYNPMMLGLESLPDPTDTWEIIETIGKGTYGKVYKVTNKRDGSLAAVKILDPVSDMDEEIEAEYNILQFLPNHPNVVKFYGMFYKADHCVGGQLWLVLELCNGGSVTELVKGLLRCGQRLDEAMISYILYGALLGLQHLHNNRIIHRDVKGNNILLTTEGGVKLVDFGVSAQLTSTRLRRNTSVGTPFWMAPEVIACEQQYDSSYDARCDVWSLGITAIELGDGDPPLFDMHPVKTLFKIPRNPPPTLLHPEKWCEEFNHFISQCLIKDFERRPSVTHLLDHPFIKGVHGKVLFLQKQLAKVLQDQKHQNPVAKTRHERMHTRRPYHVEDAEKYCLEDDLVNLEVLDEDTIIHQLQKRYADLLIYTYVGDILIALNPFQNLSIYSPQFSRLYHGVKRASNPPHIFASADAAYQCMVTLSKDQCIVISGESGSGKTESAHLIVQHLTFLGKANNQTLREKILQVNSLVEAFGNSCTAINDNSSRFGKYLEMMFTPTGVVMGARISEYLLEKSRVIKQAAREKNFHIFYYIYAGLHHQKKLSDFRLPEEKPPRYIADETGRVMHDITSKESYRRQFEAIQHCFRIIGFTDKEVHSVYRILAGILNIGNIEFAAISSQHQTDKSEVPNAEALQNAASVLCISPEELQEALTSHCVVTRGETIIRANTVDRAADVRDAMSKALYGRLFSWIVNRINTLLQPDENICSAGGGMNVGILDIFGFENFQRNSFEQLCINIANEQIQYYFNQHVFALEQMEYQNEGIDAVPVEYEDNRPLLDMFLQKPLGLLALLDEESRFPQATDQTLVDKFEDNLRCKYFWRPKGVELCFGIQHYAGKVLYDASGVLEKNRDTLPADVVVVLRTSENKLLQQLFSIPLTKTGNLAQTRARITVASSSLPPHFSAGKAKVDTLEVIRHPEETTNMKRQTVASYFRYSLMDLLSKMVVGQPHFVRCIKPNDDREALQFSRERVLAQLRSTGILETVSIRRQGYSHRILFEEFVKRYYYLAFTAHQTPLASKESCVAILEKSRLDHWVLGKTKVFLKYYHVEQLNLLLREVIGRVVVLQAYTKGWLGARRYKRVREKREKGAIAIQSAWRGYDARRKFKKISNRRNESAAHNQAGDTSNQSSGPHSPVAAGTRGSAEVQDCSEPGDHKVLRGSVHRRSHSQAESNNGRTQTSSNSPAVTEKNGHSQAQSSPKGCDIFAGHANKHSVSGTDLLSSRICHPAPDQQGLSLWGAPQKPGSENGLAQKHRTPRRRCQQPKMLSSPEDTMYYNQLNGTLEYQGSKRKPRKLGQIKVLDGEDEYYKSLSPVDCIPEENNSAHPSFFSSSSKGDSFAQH
Chain of human kinome (Homo sapiens, UniProt P48736) (P48736 whole entry): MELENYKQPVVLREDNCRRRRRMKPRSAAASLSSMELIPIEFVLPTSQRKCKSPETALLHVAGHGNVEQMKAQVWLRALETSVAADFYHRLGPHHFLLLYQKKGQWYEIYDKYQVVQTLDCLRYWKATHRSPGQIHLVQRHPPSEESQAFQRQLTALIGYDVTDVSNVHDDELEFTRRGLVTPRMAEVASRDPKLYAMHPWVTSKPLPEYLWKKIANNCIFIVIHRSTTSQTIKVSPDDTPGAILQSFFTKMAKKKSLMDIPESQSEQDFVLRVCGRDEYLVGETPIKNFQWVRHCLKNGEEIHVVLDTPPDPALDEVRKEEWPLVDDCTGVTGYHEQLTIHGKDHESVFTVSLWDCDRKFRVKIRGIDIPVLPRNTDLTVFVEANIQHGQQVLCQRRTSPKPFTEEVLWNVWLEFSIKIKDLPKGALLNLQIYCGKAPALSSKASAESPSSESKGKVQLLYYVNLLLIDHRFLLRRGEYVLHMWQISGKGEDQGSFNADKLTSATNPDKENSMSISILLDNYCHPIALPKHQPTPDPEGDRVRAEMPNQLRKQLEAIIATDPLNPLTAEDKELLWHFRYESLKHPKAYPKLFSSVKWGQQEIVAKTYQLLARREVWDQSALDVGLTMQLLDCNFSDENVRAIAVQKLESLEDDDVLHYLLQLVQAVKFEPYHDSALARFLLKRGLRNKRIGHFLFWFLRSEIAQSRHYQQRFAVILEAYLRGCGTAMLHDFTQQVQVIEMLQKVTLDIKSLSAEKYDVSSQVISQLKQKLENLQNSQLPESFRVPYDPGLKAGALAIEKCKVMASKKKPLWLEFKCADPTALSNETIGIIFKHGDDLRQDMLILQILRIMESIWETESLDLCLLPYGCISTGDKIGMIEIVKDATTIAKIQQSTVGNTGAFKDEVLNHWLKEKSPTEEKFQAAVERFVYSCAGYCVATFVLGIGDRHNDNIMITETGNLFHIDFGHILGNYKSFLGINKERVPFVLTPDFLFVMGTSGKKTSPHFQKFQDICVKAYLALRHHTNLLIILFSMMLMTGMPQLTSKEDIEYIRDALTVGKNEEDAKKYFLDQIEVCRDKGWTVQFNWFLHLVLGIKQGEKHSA
Chain of human kinome (Homo sapiens, UniProt P42336, E545A) (P42336 whole entry E545A): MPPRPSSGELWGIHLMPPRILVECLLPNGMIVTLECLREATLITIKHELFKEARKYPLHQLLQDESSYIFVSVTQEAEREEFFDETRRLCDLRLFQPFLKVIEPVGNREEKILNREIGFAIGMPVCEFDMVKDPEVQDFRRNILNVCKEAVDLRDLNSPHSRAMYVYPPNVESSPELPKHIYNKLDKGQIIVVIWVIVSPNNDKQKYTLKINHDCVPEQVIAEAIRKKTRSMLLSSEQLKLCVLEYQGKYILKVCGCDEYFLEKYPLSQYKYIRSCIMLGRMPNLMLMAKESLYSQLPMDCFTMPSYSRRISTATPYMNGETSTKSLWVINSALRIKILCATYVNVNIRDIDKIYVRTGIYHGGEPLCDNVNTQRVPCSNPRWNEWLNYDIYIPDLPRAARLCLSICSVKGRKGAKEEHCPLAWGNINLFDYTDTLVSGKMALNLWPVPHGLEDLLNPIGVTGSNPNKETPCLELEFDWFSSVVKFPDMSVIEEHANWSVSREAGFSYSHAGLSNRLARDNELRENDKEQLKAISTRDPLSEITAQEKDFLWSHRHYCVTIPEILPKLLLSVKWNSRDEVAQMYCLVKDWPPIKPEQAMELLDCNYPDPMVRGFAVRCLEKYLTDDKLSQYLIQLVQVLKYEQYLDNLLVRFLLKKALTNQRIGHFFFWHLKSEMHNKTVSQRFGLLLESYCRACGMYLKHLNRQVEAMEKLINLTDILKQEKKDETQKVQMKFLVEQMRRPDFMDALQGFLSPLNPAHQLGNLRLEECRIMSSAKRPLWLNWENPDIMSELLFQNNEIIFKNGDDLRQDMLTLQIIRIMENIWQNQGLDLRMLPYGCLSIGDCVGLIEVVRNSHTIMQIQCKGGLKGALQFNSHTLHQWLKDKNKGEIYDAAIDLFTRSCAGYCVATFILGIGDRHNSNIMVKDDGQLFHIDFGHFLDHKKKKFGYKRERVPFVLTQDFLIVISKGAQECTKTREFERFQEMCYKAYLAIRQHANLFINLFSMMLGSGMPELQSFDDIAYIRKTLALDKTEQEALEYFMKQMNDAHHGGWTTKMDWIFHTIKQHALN
Chain of human kinome (Homo sapiens, UniProt P11309) (P11309 whole entry): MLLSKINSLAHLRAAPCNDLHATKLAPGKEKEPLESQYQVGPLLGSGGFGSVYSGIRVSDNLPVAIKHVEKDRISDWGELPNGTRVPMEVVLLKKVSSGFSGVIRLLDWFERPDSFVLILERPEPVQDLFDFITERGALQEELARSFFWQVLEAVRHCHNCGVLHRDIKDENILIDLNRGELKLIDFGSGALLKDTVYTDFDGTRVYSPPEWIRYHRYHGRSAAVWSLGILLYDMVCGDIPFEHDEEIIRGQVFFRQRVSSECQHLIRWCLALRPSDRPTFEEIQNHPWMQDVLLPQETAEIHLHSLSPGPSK
Chain of human kinome (Homo sapiens, UniProt O14733) (O14733 whole entry): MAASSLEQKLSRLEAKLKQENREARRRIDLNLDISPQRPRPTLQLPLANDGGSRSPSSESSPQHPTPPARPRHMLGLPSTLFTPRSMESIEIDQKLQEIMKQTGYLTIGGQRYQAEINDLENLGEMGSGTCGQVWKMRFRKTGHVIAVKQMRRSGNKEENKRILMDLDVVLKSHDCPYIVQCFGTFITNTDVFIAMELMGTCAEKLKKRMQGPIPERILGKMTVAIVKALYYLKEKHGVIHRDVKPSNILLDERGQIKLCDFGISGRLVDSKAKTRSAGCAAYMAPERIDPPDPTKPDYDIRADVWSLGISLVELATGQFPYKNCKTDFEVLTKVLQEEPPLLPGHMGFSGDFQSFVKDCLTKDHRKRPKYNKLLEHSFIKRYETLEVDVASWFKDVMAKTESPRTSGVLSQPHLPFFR

## COc1cc(F)ccc1-c1cc(Nc2cc(CS(C)(=N)=O)ccn2)ncc1F (stereo not drawn) [VIP152]
[1]
  IC50: ~1000 nM
Neuropeptide Y Y2
  inhibition at 10 µM: 3%
Transporter, GABA
  inhibition at 10 µM: -20%
Human kinome [2]
  remaining binding at 1 µM: 60%
Human kinome [3]
  remaining binding at 0.1 µM: 100%
Human kinome [4]
  remaining binding at 0.1 µM: 100%
Human kinome [5]
  remaining binding at 0.1 µM: 100%
Human kinome [6]; PIM1, 100 nM
  remaining binding at 0.1 µM: 100%
Human kinome [6]; kinase PIM1 (Entrez PIM1), compound concentration 1000 nM
  remaining binding at 1 µM: 100%
Human kinome [7]
  remaining binding at 1 µM: 26%
Human kinome [8]
  remaining binding at 0.1 µM: 100%
Human kinome [9]
  remaining binding at 0.1 µM: 100%
Human kinome [10]
  remaining binding at 0.1 µM: 94%
Human kinome [11]
  remaining binding at 0.1 µM: 100%
Human kinome [12]; MYO3B, 100 nM
  remaining binding at 0.1 µM: 100%
Human kinome [12]; kinase MYO3B (Entrez MYO3B), compound concentration 1000 nM
  remaining binding at 1 µM: 68%
Human kinome [13]
  remaining binding at 0.1 µM: 99%
Human kinome [14]
  remaining binding at 0.1 µM: 100%
Human kinome [15]
  remaining binding at 0.1 µM: 100%
Human kinome [16]
  remaining binding at 0.1 µM: 100%
Human kinome [17]
  remaining binding at 0.1 µM: 86%
Human kinome [18]; PIK3CG, 100 nM
  remaining binding at 0.1 µM: 100%
Human kinome [18]; kinase PIK3CG (Entrez PIK3CG), compound concentration 1000 nM
  remaining binding at 1 µM: 97%
Human kinome [19]; PIK3CA(E545A), 100 nM
  remaining binding at 0.1 µM: 71%
Human kinome [19]; kinase PIK3CA(E545A) (Entrez PIK3CA), compound concentration 1000 nM
  remaining binding at 1 µM: 98%
Human kinome [20]
  remaining binding at 1 µM: 92%
Human kinome [21]
  remaining binding at 1 µM: 38%
Human kinome [22]
  remaining binding at 0.1 µM: 100%
Human kinome [23]
  remaining binding at 0.1 µM: 93%
Human kinome [24]
  remaining binding at 0.1 µM: 100%
Human kinome [25]
  remaining binding at 0.1 µM: 100%
Human kinome [26]; PRKCD, 100 nM
  remaining binding at 0.1 µM: 100%
Human kinome [26]; kinase PRKCD (Entrez PRKCD), compound concentration 1000 nM
  remaining binding at 1 µM: 83%
Human kinome [27]
  remaining binding at 1 µM: 89%
Human kinome [28]
  remaining binding at 0.1 µM: 100%
MAP3K3
  remaining binding at 1 µM: 86%
